“Also recorded” adds a separate entry of the source.
Key:
[1] = tested on: wild-type yeast (strain Y46850); test: Growth of wild-type yeast in culture media containing an overlay oil (optical density); format: cell-based, S. cerevisiae
Method: The ability of yeast cells (S. cerevisiae) to grow normally in culture media containing an overlay oil was assessed. Wild-type yeast (strain Y46850) was cultured in the presence of soybean oil, sunflower oil, safflower oil, castor oil, or JARCOL™ I-16. Cell growth was measured by assessing the optical density (OD) of the yeast culture suspensions in three independent experiments (SF1, SF2, and SF3) (FIGS. 1-3).

[2] = Solubility of hexanoate in soybean oil by gas chromatography (GC-FID); conditions: oil or lipid
[3] = Visual assessment of CBDA solubility in overlay oils; format: physicochemical; conditions: CBDA as hemp oil with 50% CBDA, target concentration greater than 50 g/L
Method: Visual appearances of solutions containing CBDA (as hemp oil with 50% CBDA) were assessed for JARCOL™ I-16, soybean oil, castor oil, ESTEREX™ A 51, sunflower oil, DRAKEOL® 19, and DURASYN® 164. A target CBD concentration of greater than 50 g/L was desired for this set of experiments. Upon visual inspection, it was determined that CBDA was soluble in JARCOL™ I-16, soybean oil, castor oil, ESTEREX™ A 51, and sunflower oil, but was insoluble in DRAKEOL® 19 and DURASYN® 164 at the target concentration. Insolubility was evidenced by the presence of precipitates in solutions of DRAKEOL® 19 or DURASYN® 164 (FIG. 9).

[4] = oil/hemp oil 10:1 v/v, visual inspection
[5] = oil/hemp oil 10:1 v/v, visual inspection (precipitates)

What does the source list for CCCCCCCCC(CO)CCCCCC (centres unmarked) [JARCOL™ I-16]?
Cell growth (optical density) versus control (no oil) ([1]; flask experiment SF2, strain Y46850 (FIG. 2)): not significantly different; Cell growth (optical density) versus control (no oil) ([1]; flask experiment SF3, strain Y46850 (FIG. 3)): not significantly different; Cell growth (optical density) versus control (no oil) ([1]; wild-type yeast strain Y46850 cultured with overlay oil, three independent experiments SF1, SF2, SF3): not significantly different

For CCCCCC(=O)O [hexanoate], which solubility [2] is on record?
The solubility was at most 185 mg/mL.

Which results are given for C=C(C)[C@@H]1CCC(C)=C[C@H]1c1c(O)cc(CCCCC)c(C(=O)O)c1O [CBDA, cannabidiolic acid]?
Solubility of CBDA in JARCOL I-16 [3, 4]: soluble; also recorded: good solubility; Solubility of CBDA in castor oil [3, 4]: soluble; also recorded: good solubility; Solubility of CBDA in soybean oil [3, 4]: soluble; also recorded: good solubility; Solubility of CBDA in DRAKEOL 19 [3, 5]: insoluble; also recorded: lower solubility; Solubility of CBDA in DURASYN 164 [3, 5]: insoluble; also recorded: lower solubility; Solubility of CBDA in ESTEREX A 51 ([3]; visual inspection): soluble; Solubility of CBDA in sunflower oil ([3]; visual inspection): soluble

Source: patent US20240368640A1, “METHODS OF PURIFYING CANNABINOIDS” (AMYRIS, INC., priority 2021, published 2024)
